Experimental data as given in patent publication US6867213B2, “(2S)-2-(adamantan-1-ylmethoxycarbonylamino)-3-(4-(2-(1,4,5,6-tetrhydropyrimidin-2-ylcarbamoyl)ethyl)benzoylamino)propionic acid isopropyl ester, its preparation and its use” (Aventis Pharma Deutschland GmbH, priority 2000, dated 2005).
Where a name gives a salt, the structure may show the parent alone.

What was measured:
[1] = test system: thyroparathyroidectomized (TPTX) rats; assay: PTH-induced hypercalcemia in the TPTX rat model of bone resorption; format: in vivo, rat (male Sprague Dawley); details: PTH treated TPTX rats; s.c. twice at 30 mg/kg, at time 0 and 3 h after start of PTH infusion; serum collected at 6 hours
Text: 3) Pharmacological Testing: PTH-Induced Hypercalcemia in the TPTX Rat Model of Bone Resorption
In this in vivo model a stimulation of bone resorption is induced in thyroparathyroidectomized (TPTX) rats by the infusion of parathyroid hormone (PTH). The changes in bone resorption are monitored by measuring the serum calcium concentration which is directly related to the extent of bone resorption.
Male Sprague Dawley rats (OFA-IFFA CREDO, France) weighting 150-200 g were thyroparathyroidectomized by the supplier. The rats were allowed free access to a standard commercial pelleted diet containing 7 g Ca/kg (UAR) and Eau de Volvic water. The success of thyroparathyroidectomy was tested by measuring serum calcium concentrations 8 days after operation in overnight fasted animals. Rats were considered as TPTX when the serum calcium level was <80 mg/l.
For treatment with PTH, rat PTH(1-34) (Bachem) was dissolved in 0.15 M sodium chloride solution containing 2% Cys-HCl and delivered via osmotic minipumps (ALZET 2001D) at 200 pmol/kg/h. […]
Serum total calcium concentrations (=calcemia) were measured colorimetrically (Ciba-Corning) using a IEMS Labsystems microplate reader at 540 nm. The differences between the mean values of calcemia in the groups were analysed for variance and by Dunnett's test. The activity of the test compound was calculated as % effect according to the formula: [formula]

Row | Structure (SMILES) | melting point [°C] | % effect (on calcemia = serum total calcium concentration) [1] [%]
1 | CC(C)OC(=O)[C@H](CNC(=O)c1ccc(CCC(=O)NC2=NCCCN2)cc1)NC(=O)OCC12CC3CC(CC(C3)C1)C2 (as salt: hydrochloride) [formula IIc, (2S)-2-(Adamantan-1-ylmethoxycarbonylamino)-3-(4-(2-(1,4,5,6-tetrahydropyrimidin-2-ylcarbamoyl)ethyl)benzoylamino)propionic Acid Isopropyl Ester Hydrochloride] | 208 to 210 | 
2 | CC(C)OC(=O)[C@H](CNC(=O)c1ccc(CCC(=O)NC2=NCCCN2)cc1)NC(=O)OCC12CC3CC(CC(C3)C1)C2 [formula IIc, (2S)-2-(Adamantan-1-ylmethoxycarbonylamino)-3-(4-(2-(1,4,5,6-tetrahydropyrimidin-2-ylcarbamoyl)ethyl)benzoylamino)propionic Acid Isopropyl Ester Hydrochloride] |  | −97
